Data published in US20260327204A1, “DEGRADERS OF CYCLIN-DEPENDENT KINASE 12/13, COMPOSITIONS, AND USES THEREOF” (ZHEJIANG UNIVERSITY, priority 2023, published 2026).

Key:
CDK12 = CDK12 (Homo sapiens, UniProt Q9NYV4); test: Western blot degradation of CDK12 (Example 2); type: cell-based; parameters: degradation of CDK12/13 protein in leukemia cells KASUMI-1, MV4-11, and Jurkat; endogenous in cells; conditions: DC50 classes, cell line not given; for DC50: read-out: CDK12 degradation Activity
Method: (§1) Western blot was used to determine the degradation of CDK12/13 protein in leukemia cells KASUMI-1, MV4-11, and Jurkat. The two compounds with the best degradation effects were further validated for their ability to degrade CDK12/13 protein in breast cancer cells MDA-MB-231 using a concentration gradient.
(§2) • Cell lines: KASUMI-1, MV4-11, Jurkat, or MDA-MB-231 • Culture medium: DMEM/RIPM-1640+10% Hyclone serum • Compound dissolution method: Compounds were dissolved in DMSO to prepare a 50 mM stock solution, and then diluted to the corresponding concentrations.
(§3) (1) In vitro cell culture: The selected cells were cultured in a 37 °C constant temperature incubator with 5% CO2. Once the cell density reached 70-90%, they were passaged for subsequent experiments.
(§4) (2) Cell seeding: Cells were digested, and the cell suspension was transferred to a 1.5 mL Eppendorf tube. After centrifugation at 1,000 rpm for 5 min, the cells were resuspended in 2 mL of culture medium and counted. The cell suspension was seeded in a 24-well plate at a density of 200,000 cells per well and allowed to adhere for 8-12 h.
(§5) (3) Compound treatment: The 50 mM compound stock solution was diluted with cell culture medium to a final concentration of 0.01 μM-3 μM. Cells were incubated in a 37 °C incubator with 5% CO2 for 3 h-48 h. The DMSO group served as the negative control.
(§6) At the end of the treatment time, the cells were collected and washed once with PBS. An appropriate volume of 4% SDS was added to lyse the cells, and the mixture was sonicated until no longer viscous. After centrifugation at 12,000 rpm at room temperature for 30 min, the supernatant was transferred to a new EP tube for protein quantification.
(§7) The exposure results were quantitatively analyzed using Image J software. First, the grayscale values of the bands were calculated using Image J. Then, the grayscale value of the target protein was divided by the grayscale value of the internal reference protein for normalization. The calculation formula is: […]
(§8) Where A is the grayscale value and D is the degradation rate.
(§9) In the figures, CDK12 and CDK13 are the target proteins under study, and β-Actin and GAPDH are the internal reference proteins. Internal reference proteins are used to indicate the total protein amount in each experimental group for quantitative analysis.

CDK13 = CDK13 (Homo sapiens, UniProt Q14004); test: Western blot degradation of CDK13 (Example 2); type: cell-based; parameters: degradation of CDK12/13 protein in leukemia cells KASUMI-1, MV4-11, and Jurkat; endogenous in cells; conditions: DC50 classes, cell line not given; for DC50: read-out: CDK13 degradation Activity
Sequence of CDK13 (Q14004 whole entry): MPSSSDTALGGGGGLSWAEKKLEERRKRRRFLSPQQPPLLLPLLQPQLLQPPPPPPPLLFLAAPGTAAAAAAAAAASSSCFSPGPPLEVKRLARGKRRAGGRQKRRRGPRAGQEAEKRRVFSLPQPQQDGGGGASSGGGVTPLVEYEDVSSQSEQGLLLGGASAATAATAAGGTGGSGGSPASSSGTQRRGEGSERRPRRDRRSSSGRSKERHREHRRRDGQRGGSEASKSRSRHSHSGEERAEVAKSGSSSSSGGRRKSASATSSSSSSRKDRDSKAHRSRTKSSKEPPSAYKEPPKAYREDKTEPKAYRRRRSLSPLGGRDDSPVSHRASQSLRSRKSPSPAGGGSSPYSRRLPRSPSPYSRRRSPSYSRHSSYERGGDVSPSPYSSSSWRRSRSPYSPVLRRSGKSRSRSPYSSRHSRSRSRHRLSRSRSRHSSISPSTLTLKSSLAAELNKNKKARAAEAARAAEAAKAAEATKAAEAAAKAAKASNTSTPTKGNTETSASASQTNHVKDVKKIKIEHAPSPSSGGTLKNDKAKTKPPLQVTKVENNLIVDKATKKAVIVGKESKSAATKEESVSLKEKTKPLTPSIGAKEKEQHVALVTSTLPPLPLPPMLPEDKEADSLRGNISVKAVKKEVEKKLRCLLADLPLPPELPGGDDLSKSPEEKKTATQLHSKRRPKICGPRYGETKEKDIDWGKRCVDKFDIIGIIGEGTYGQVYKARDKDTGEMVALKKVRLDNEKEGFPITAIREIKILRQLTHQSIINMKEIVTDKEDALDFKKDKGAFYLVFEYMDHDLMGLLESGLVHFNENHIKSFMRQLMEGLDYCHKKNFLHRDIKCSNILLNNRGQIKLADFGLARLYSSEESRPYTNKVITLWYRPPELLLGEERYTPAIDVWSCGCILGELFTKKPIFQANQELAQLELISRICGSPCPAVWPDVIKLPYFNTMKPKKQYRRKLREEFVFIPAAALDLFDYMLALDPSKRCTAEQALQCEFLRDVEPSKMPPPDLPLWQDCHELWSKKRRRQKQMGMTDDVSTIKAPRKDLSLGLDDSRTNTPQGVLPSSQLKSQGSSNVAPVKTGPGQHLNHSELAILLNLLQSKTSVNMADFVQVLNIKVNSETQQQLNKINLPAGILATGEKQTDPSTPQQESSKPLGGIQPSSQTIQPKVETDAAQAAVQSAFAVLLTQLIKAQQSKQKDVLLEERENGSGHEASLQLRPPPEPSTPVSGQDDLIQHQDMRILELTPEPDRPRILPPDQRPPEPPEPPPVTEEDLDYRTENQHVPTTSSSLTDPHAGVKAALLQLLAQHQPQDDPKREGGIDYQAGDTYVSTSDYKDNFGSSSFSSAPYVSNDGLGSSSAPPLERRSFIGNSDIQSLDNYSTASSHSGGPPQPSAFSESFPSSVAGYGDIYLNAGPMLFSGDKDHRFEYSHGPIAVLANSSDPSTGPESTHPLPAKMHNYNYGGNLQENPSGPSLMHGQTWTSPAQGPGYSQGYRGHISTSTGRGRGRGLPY
Sequence of CDK13 (O75909 whole entry partner): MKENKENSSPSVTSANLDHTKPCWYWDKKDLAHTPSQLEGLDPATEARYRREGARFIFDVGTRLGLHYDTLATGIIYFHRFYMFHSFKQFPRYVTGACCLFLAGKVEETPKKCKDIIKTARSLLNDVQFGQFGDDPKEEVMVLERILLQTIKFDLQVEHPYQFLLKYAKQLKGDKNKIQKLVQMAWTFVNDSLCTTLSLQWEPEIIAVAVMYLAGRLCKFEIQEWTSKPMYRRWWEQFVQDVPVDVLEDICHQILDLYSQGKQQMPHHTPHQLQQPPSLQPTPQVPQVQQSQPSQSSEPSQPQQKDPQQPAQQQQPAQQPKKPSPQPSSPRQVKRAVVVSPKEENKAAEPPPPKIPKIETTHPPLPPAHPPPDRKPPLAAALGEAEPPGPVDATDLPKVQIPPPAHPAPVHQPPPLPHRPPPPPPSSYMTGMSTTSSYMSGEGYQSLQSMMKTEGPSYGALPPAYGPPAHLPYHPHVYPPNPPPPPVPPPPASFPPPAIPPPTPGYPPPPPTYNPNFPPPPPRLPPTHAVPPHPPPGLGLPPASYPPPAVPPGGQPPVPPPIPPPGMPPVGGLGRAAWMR
Method: as §1, §2, §3, §4, §5, §6, §7, §8, §9

Sequence of CDK12 (Q9NYV4 whole entry): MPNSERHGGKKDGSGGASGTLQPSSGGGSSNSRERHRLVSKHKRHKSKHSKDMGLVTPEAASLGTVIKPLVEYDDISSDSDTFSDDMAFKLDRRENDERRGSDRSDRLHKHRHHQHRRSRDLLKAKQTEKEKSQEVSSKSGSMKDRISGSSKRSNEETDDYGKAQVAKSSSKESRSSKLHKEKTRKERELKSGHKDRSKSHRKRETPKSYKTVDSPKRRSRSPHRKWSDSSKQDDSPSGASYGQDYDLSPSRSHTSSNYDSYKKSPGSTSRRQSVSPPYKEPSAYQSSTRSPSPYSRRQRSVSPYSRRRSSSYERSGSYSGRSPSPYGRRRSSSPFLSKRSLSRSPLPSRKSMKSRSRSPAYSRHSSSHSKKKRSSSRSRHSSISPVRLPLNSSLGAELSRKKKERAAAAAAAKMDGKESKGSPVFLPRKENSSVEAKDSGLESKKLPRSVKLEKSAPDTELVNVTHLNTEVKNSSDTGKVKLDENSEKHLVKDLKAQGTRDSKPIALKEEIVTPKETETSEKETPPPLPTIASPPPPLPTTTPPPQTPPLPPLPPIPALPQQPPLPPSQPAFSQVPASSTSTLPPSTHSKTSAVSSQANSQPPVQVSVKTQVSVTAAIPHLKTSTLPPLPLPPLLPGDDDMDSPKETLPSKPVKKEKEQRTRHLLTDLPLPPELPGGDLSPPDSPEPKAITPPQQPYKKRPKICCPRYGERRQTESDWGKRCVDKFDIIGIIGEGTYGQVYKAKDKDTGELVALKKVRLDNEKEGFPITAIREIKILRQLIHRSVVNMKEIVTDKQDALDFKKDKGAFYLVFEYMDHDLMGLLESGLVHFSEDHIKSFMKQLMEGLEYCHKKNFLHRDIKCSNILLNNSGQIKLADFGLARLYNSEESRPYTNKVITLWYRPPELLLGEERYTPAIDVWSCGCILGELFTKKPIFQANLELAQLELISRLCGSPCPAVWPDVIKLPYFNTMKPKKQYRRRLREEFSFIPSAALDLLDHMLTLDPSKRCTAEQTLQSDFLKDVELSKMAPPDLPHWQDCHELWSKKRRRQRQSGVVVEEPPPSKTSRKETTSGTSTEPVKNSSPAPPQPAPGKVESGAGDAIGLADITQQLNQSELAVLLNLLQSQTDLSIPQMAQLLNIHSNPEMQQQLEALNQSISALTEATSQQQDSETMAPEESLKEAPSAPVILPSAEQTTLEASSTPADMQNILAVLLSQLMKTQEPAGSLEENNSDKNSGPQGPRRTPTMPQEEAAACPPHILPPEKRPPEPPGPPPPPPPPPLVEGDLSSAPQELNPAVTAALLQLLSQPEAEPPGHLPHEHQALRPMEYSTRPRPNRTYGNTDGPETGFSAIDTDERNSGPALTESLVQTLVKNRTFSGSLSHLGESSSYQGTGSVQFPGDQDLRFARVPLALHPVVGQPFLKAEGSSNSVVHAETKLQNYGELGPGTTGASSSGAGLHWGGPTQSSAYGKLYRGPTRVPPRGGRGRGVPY
Sequence of CDK12 (O75909 whole entry partner): as the sequence (O75909 whole entry partner) above

DC50 (CDK12) [µM] | DC50 (CDK13) [nM] | CDK13 degradation Activity (CDK13) | CDK12 degradation Activity (CDK12) | SMILES
0.1 to 0.5 | 100 to 500 |  |  | Cc1ncsc1-c1ccc([C@H](C)NC(=O)[C@@H]2C[C@@H](O)CN2C(=O)[C@@H](NC(=O)COCCOc2ccc(-c3ccc(N(C(=O)NCc4ccccc4)[C@H]4CC[C@H](Nc5ccc(C#N)cn5)CC4)cc3)cn2)C(C)(C)C)cc1 [Formula 1]
1 to 3 | 500 to 1000 |  |  | Cc1ncsc1-c1ccc([C@H](C)NC(=O)[C@@H]2C[C@@H](O)CN2C(=O)[C@@H](NC(=O)COCCOCCOc2ccc(-c3ccc(N(C(=O)NCc4ccccc4)[C@H]4CC[C@H](Nc5ccc(C#N)cn5)CC4)cc3)cn2)C(C)(C)C)cc1 [Formula 2]
3 to 10 | 3000 to 10000 |  |  | Cc1ncsc1-c1ccc([C@H](C)NC(=O)[C@@H]2C[C@@H](O)CN2C(=O)[C@@H](NC(=O)COCCOCCOCCOc2ccc(-c3ccc(N(C(=O)NCc4ccccc4)[C@H]4CC[C@H](Nc5ccc(C#N)cn5)CC4)cc3)cn2)C(C)(C)C)cc1 [Formula 3]
3 to 10 | 3000 to 10000 |  |  | Cc1ncsc1-c1ccc([C@H](C)NC(=O)[C@@H]2C[C@@H](O)CN2C(=O)[C@@H](NC(=O)COCCOCCOCCOCCOc2ccc(-c3ccc(N(C(=O)NCc4ccccc4)[C@H]4CC[C@H](Nc5ccc(C#N)cn5)CC4)cc3)cn2)C(C)(C)C)cc1 [Formula 4]
1 to 3 | 500 to 1000 |  |  | Cc1ncsc1-c1ccc([C@H](C)NC(=O)[C@@H]2C[C@@H](O)CN2C(=O)[C@@H](NC(=O)COc2ccc(-c3ccc(N(C(=O)NCc4ccccc4)[C@H]4CC[C@H](Nc5ccc(C#N)cn5)CC4)cc3)cn2)C(C)(C)C)cc1 [Formula 6]
1 to 3 | 3000 to 10000 |  |  | Cc1ncsc1-c1ccc([C@H](C)NC(=O)[C@@H]2C[C@@H](O)CN2C(=O)[C@@H](NC(=O)COCCN2CCN(c3ccc(N(C(=O)NCc4ccccc4)[C@H]4CC[C@H](Nc5ccc(C#N)cn5)CC4)cc3)CC2)C(C)(C)C)cc1 [Formula 7]
0.5 to 1 | 500 to 1000 |  |  | Cc1ncsc1-c1ccc([C@H](C)NC(=O)[C@@H]2C[C@@H](O)CN2C(=O)[C@@H](NC(=O)COCCOCCN2CCN(c3ccc(N(C(=O)NCc4ccccc4)[C@H]4CC[C@H](Nc5ccc(C#N)cn5)CC4)cc3)CC2)C(C)(C)C)cc1 [Formula 8]
3 to 10 | 3000 to 10000 |  |  | Cc1ncsc1-c1ccc([C@H](C)NC(=O)[C@@H]2C[C@@H](O)CN2C(=O)[C@@H](NC(=O)COCCOCCOCCN2CCN(c3ccc(N(C(=O)NCc4ccccc4)[C@H]4CC[C@H](Nc5ccc(C#N)cn5)CC4)cc3)CC2)C(C)(C)C)cc1 [Formula 9]
1 to 3 | 1000 to 3000 |  |  | Cc1ncsc1-c1ccc([C@H](C)NC(=O)[C@@H]2C[C@@H](O)CN2C(=O)[C@@H](NC(=O)CN2CCN(c3ccc(N(C(=O)NCc4ccccc4)[C@H]4CC[C@H](Nc5ccc(C#N)cn5)CC4)cc3)CC2)C(C)(C)C)cc1 [Formula 10]
0.5 to 1 | 100 to 500 |  |  | Cc1ncsc1-c1ccc([C@H](C)NC(=O)[C@@H]2C[C@@H](O)CN2C(=O)[C@@H](NC(=O)CN2CCC(Oc3ccc(-c4ccc(N(C(=O)NCc5ccccc5)[C@H]5CC[C@H](Nc6ccc(C#N)cn6)CC5)cc4)cn3)CC2)C(C)(C)C)cc1 [Formula 11]
0.5 to 1 | 100 to 500 |  |  | Cc1ncsc1-c1ccc([C@H](C)NC(=O)[C@@H]2C[C@@H](O)CN2C(=O)[C@@H](NC(=O)CN2CCC(COc3ccc(-c4ccc(N(C(=O)NCc5ccccc5)[C@H]5CC[C@H](Nc6ccc(C#N)cn6)CC5)cc4)cn3)CC2)C(C)(C)C)cc1 [Formula 12]
3 to 10 | 3000 to 10000 |  |  | Cc1ncsc1-c1ccc([C@H](C)NC(=O)[C@@H]2C[C@@H](O)CN2C(=O)[C@@H](NC(=O)CC#CCCOc2ccc(-c3ccc(N(C(=O)NCc4ccccc4)[C@H]4CC[C@H](Nc5ccc(C#N)cn5)CC4)cc3)cn2)C(C)(C)C)cc1 [Formula 13]
3 to 10 |  | − |  | Cc1ncsc1-c1ccc([C@H](C)NC(=O)[C@@H]2C[C@@H](O)CN2C(=O)[C@@H](NC(=O)CN2CC(Oc3ccc(-c4ccc(N(C(=O)NCc5ccccc5)[C@H]5CC[C@H](Nc6ccc(C#N)cn6)CC5)cc4)cn3)C2)C(C)(C)C)cc1 [Formula 14]
 |  | − | − | Cc1ncsc1-c1ccc([C@H](C)NC(=O)[C@@H]2C[C@@H](O)CN2C(=O)[C@@H](NC(=O)CC#Cc2ccc(-c3ccc(N(C(=O)NCc4ccccc4)[C@H]4CC[C@H](Nc5ccc(C#N)cn5)CC4)cc3)cn2)C(C)(C)C)cc1 [Formula 15]
3 to 10 | 3000 to 10000 |  |  | Cc1ncsc1-c1ccc([C@H](C)NC(=O)[C@@H]2C[C@@H](O)CN2C(=O)[C@@H](NC(=O)CC#CCOc2ccc(-c3ccc(N(C(=O)NCc4ccccc4)[C@H]4CC[C@H](Nc5ccc(C#N)cn5)CC4)cc3)cn2)C(C)(C)C)cc1 [Formula 16]
1 to 3 | 500 to 1000 |  |  | Cc1ncsc1-c1ccc([C@H](C)NC(=O)[C@@H]2C[C@@H](O)CN2C(=O)[C@@H](NC(=O)C2CCN(c3ccc(-c4ccc(N(C(=O)NCc5ccccc5)[C@H]5CC[C@H](Nc6ccc(C#N)cn6)CC5)cc4)cn3)CC2)C(C)(C)C)cc1 [Formula 17]
 |  | − | − | Cc1ncsc1-c1ccc([C@H](C)NC(=O)[C@@H]2C[C@@H](O)CN2C(=O)[C@@H](NC(=O)CC#CC2CCN(c3ccc(-c4ccc(N(C(=O)NCc5ccccc5)[C@H]5CC[C@H](Nc6ccc(C#N)cn6)CC5)cc4)cn3)CC2)C(C)(C)C)cc1 [Formula 19]
3 to 10 | 3000 to 10000 |  |  | Cc1ncsc1-c1ccc([C@H](C)NC(=O)[C@@H]2C[C@@H](O)CN2C(=O)[C@@H](NC(=O)CC#CC2CCN(c3ccc(N(C(=O)NCc4ccccc4)[C@H]4CC[C@H](Nc5ccc(C#N)cn5)CC4)cc3)CC2)C(C)(C)C)cc1 [Formula 20]

SMILES | DC50 (CDK12) [µM] | DC50 (CDK13) [nM] | CDK13 degradation Activity (CDK13) | CDK12 degradation Activity (CDK12)
Cc1ncsc1-c1ccc([C@H](C)NC(=O)[C@@H]2C[C@@H](O)CN2C(=O)[C@@H](NC(=O)CN2CCN(c3ccc(-c4ccc(N(C(=O)NCc5ccccc5)[C@H]5CC[C@H](Nc6ccc(C#N)cn6)CC5)cc4)cn3)CC2)C(C)(C)C)cc1 (racemic) [Formula 73] | < 0.1 | < 100 |  | 
Cc1ncsc1-c1ccc([C@H](C)NC(=O)[C@@H]2C[C@@H](O)CN2C(=O)[C@@H](NC(=O)CN2CCN(c3ncc(-c4ccc(N(C(=O)NCc5ccccc5)[C@H]5CC[C@H](Nc6ccc(C#N)cn6)CC5)cc4)cn3)CC2)C(C)(C)C)cc1 (racemic) [Formula 81] | < 0.1 | < 100 |  | 
Cc1ncsc1-c1ccc([C@H](C)NC(=O)[C@@H]2C[C@@H](O)CN2C(=O)[C@@H](NC(=O)CN2CCN(c3ccc(-c4ccc(N(C(=O)NCc5ccccc5)[C@H]5CC[C@H](Nc6ccc(C#N)cn6)CC5)cc4)cn3)CC2)C(C)(C)C)cc1 [Formula 71] |  | < 100 |  | 
Cc1ncsc1-c1ccc([C@H](C)NC(=O)[C@@H]2C[C@@H](O)CN2C(=O)[C@@H](NC(=O)CN2CCN(c3ccc(-c4ccc(N(C(=O)NCc5ccccc5)[C@H]5CC[C@H](Nc6ccc(C#N)cn6)CC5)cc4)cn3)CC2)C(C)(C)C)cc1 [Formula 72] |  | < 100 |  | 
Cc1ncsc1-c1ccc([C@H](C)NC(=O)[C@@H]2C[C@@H](O)CN2C(=O)[C@@H](NC(=O)CN2CCN(c3ccc(-c4ccc(N(C(=O)NCc5ccccc5)[C@H]5CC[C@H](Nc6ccc(C#N)cn6)CC5)cc4)cn3)CC2)C(C)(C)C)cc1 [Formula 74] |  | < 100 |  | 
Cc1ncsc1-c1ccc([C@H](C)NC(=O)[C@@H]2C[C@@H](O)CN2C(=O)[C@@H](NC(=O)CN2CCN(c3ccc(-c4ccc(N(C(=O)NCc5ccccc5)[C@H]5CC[C@H](Nc6ccc(C#N)cn6)CC5)cc4)cn3)CC2)C(C)(C)C)cc1 [Formula 75] |  | < 100 |  | 
Cc1ncsc1-c1ccc([C@H](C)NC(=O)[C@@H]2C[C@@H](O)CN2C(=O)[C@@H](NC(=O)CN2CCN(c3ccc(-c4ccc(N(C(=O)NCc5ccccc5)[C@H]5CC[C@H](Nc6ccc(C#N)cn6)CC5)cc4)cn3)CC2)C(C)(C)C)cc1 [Formula 76] |  | < 100 |  | 
Cc1ncsc1-c1ccc([C@H](C)NC(=O)[C@@H]2C[C@@H](O)CN2C(=O)[C@@H](NC(=O)CN2CCN(c3ccc(-c4ccc(N(C(=O)NCc5ccccc5)[C@H]5CC[C@H](Nc6ccc(C#N)cn6)CC5)cc4)cn3)CC2)C(C)(C)C)cc1 [Formula 77] |  | < 100 |  | 
Cc1ncsc1-c1ccc([C@H](C)NC(=O)[C@@H]2C[C@@H](O)CN2C(=O)[C@@H](NC(=O)CN2CCN(c3ccc(-c4ccc(N(C(=O)NCc5ccccc5)[C@H]5CC[C@H](Nc6ccc(C#N)cn6)CC5)cc4)cn3)CC2)C(C)(C)C)cc1 [Formula 78] |  | < 100 |  | 
